EC50, IC50 and AC50 data for 19 compounds are collected here from ChEMBL document CHEMBL1201862, “PubChem BioAssay data set” (2004).

Calls of active or inactive are those of the source.

By EC50 is commonly meant the concentration that produces a half-maximal response. For orientation: IC50 means the concentration that gives 50% inhibition. One may read the AC50 as the concentration giving half of the maximal activity seen.

The target of assay [1] is Luciferin 4-monooxygenase (Photinus pyralis, UniProt P08659). In words: Counter Screen for Luciferase-based Assay Positives. [Related pubchem assays: 620, 618, 411 ]. Background: The purpose of a counterscreen is to sort out artefacts and off-target activity.
Luciferin 4-monooxygenase, sequence (P08659 whole entry): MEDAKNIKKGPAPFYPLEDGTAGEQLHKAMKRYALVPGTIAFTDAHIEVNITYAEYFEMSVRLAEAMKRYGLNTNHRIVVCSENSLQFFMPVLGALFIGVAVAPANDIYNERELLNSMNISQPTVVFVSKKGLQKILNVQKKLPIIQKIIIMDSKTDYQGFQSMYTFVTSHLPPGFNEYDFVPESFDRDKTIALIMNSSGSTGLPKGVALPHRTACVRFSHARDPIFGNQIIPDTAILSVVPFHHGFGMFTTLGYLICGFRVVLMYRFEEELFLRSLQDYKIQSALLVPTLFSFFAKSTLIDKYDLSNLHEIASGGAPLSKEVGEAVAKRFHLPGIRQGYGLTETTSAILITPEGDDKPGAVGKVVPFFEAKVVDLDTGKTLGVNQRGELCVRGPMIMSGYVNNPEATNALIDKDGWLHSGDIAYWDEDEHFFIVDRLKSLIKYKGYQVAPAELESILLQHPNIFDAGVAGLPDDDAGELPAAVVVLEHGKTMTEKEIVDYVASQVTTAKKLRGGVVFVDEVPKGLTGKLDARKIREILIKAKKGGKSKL
In assay [2] the test system is HT-1080. The assay can be described thus: cytotoxicity in HT1080 fibrosarcoma cells, cell-based, fluorescence readout (AID 620). As to conditions: Homo sapiens. It counts as functional.
In assay [3] the target is T1, Calpain-2 catalytic subunit (Sus scrofa, UniProt P43367).
T1 sequence (P43367 whole entry): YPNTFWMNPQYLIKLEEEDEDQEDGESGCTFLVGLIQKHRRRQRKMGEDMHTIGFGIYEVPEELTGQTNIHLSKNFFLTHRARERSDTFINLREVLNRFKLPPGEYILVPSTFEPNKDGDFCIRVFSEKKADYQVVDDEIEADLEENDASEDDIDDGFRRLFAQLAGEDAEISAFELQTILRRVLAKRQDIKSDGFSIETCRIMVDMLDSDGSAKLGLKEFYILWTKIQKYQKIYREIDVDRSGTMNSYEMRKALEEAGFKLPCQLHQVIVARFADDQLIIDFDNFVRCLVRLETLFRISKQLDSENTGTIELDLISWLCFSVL
In words: pig calpain II inhibitor potency, dose response, biochemical, fluorogenic peptide substrate (AID 1420). It counts as functional.

Assay [4] concerns the target Prothrombin (Homo sapiens, UniProt P00734). In words: Thrombin 1536 HTS Dose Response Confirmation. [Related pubchem assays: 1046 (Thrombin 1536 HTS; hits were confirmed in this assay)]. It counts as functional.
A short description of assay [5]: cytotoxicity toward NIH3T3 fibroblasts, dose response, counter-screen, cell-based, ATP luminescence, mouse fibroblasts (AID 2010).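 Further: cells exposed to compound for about 90 hours before reading.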 It counts as functional.
Assay [6] in a line: cells.
Assay [7] is described as follows: inhibitors of intracellular T. cruzi replication, confirmation, NIH3T3 host cells, beta-gal luminescence (AID 2044).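 Further: intracellular parasites grown in NIH/3T3 mouse fibroblasts as host cells; luminescent beta-galactosidase reporter signal from transgenic T. cruzi replicating inside host cells; inhibitors lower the luminescence signal.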 The class given is functional, cell-based.
The target of assay [8] is T2, Short transient receptor potential channel 4 (Mus musculus, UniProt Q9QUQ5).
T2 sequence (Q9QUQ5 whole entry): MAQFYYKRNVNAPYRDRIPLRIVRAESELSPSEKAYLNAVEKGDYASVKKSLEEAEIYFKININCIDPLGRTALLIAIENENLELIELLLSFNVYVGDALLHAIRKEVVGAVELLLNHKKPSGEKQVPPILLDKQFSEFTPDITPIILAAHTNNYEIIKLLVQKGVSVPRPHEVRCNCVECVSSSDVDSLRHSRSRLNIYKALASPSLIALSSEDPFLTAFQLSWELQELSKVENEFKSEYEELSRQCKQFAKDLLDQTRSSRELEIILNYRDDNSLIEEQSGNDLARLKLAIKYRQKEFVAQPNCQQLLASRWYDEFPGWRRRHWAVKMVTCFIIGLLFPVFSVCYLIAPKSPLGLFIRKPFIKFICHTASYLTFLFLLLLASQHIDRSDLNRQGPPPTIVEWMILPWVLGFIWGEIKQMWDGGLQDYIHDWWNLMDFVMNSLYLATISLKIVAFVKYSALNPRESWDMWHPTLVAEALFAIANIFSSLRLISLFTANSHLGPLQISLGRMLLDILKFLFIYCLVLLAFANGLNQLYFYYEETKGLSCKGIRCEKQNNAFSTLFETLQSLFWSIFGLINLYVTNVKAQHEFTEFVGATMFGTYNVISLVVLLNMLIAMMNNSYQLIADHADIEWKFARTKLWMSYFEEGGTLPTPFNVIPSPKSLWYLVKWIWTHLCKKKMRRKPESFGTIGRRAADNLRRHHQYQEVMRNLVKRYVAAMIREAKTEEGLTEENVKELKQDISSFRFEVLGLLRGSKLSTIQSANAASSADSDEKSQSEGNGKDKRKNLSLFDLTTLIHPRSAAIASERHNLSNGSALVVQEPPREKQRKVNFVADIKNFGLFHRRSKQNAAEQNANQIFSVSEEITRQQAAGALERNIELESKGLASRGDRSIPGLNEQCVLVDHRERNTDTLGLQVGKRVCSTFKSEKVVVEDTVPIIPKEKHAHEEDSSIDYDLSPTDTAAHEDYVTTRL
The assay can be described thus: mouse TRPC4 channel inhibitors, dose response, cell-based, HEK293 TRPC4/mu-opioid, Fluo-4 calcium (AID 434942).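 Further: potency of inhibitors blocking the TRPC4 calcium response.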 The class given is functional.

The target in assay [9] is T2, Short transient receptor potential channel 4. In words: mouse TRPC4 channel activators, dose response, cell-based, HEK293 TRPC4/mu-opioid, Fluo-4 calcium (AID 434937). It counts as functional.
Assay [10] addresses T3, Mannose-6-phosphate isomerase (Homo sapiens, UniProt P34949).
T3 sequence (P34949 whole entry): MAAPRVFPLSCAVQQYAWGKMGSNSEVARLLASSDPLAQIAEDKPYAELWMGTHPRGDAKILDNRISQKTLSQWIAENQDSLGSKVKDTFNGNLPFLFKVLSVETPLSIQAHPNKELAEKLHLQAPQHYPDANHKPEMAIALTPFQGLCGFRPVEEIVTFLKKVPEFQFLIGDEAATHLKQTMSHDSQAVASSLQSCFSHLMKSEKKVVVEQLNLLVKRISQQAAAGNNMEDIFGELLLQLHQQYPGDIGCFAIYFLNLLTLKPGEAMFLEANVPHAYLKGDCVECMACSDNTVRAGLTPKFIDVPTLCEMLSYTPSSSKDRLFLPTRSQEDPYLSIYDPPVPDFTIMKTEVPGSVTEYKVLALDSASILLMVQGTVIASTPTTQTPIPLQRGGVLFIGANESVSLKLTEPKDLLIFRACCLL
In words: human PMI inhibitors, high substrate, primary screen, biochemical, fluorescence intensity, high mannose 6-phosphate (AID 1220).

The target in assay [11] is T4, Histone-lysine N-methyltransferase NSD2 (Homo sapiens, UniProt O96028).
T4 sequence (O96028 whole entry): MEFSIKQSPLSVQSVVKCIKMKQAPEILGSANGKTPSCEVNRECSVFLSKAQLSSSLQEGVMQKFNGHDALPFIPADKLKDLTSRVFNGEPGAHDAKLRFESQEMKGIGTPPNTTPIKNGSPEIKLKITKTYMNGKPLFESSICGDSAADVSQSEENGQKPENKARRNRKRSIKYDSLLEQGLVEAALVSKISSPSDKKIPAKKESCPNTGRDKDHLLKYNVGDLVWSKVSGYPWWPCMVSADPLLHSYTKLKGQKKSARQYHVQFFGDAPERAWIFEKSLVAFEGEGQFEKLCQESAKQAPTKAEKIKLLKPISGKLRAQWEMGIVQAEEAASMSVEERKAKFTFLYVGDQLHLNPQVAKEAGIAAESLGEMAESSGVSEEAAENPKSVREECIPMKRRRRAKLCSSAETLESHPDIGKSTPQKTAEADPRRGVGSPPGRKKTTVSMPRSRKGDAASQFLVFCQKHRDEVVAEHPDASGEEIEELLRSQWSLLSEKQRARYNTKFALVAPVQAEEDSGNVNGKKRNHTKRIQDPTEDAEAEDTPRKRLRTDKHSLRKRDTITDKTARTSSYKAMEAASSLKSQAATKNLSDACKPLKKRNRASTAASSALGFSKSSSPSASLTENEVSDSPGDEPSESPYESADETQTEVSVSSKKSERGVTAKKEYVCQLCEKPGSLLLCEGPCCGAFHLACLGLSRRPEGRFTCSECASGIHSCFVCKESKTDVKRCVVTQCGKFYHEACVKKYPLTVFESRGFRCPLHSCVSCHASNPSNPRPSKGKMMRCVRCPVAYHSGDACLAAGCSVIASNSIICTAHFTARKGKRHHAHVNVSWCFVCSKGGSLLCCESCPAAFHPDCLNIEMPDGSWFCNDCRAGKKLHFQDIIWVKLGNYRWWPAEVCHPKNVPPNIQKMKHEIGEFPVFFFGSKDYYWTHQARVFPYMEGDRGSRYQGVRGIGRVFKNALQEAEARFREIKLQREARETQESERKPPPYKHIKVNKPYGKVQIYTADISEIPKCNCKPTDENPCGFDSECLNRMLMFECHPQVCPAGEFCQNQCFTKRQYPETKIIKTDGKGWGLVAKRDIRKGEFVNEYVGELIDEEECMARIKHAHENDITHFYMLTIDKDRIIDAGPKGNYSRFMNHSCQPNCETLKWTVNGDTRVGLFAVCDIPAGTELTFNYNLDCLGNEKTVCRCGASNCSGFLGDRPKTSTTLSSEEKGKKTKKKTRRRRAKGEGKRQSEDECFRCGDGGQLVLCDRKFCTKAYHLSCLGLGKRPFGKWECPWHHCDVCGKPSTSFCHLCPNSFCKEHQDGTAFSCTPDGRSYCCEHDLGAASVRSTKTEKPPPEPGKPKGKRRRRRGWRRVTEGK
It counts as biochemical.

Assay [12] deals with Glyceraldehyde-3-phosphate dehydrogenase (Homo sapiens, UniProt P04406).
Glyceraldehyde-3-phosphate dehydrogenase, sequence (P04406 whole entry): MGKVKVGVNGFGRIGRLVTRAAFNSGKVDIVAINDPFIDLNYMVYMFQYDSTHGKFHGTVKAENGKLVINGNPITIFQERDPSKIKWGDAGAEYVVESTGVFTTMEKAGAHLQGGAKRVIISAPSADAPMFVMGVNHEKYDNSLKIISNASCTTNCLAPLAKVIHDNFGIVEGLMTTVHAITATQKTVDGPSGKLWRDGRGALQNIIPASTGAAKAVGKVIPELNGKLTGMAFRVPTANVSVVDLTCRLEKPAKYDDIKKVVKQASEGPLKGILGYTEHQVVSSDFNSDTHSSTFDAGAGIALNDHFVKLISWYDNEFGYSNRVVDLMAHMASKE
Assay [13] addresses Cytochrome P450 2C19 (Homo sapiens, UniProt P33261). The assay can be described thus: Cytochrome panel assay with activity outcomes. Panel member name: p450-cyp2c19 Compounds with AC50 equal or less than 10 uM are considered active. The class given is functional. As to conditions: read-out: AC50.
For assay [14], the target named is Cytochrome P450 2C9 (Homo sapiens, UniProt P11712).
Cytochrome P450 2C9, sequence (P11712 whole entry): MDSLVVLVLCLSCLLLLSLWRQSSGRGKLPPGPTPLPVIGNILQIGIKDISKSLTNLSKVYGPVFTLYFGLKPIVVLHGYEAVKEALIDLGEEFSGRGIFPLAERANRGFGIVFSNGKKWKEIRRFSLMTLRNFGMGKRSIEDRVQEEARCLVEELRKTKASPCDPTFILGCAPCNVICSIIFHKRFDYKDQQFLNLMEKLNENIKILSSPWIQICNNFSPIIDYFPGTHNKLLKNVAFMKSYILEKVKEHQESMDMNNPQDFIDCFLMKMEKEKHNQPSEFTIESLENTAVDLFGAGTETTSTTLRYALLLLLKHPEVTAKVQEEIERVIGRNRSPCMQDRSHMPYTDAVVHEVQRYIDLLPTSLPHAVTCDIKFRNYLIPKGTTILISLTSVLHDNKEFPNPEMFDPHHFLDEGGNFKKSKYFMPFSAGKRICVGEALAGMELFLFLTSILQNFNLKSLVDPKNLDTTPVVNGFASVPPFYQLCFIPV
Assay [15] deals with T5, Coagulation factor XII (Homo sapiens, UniProt P00748).
T5 sequence (P00748 whole entry): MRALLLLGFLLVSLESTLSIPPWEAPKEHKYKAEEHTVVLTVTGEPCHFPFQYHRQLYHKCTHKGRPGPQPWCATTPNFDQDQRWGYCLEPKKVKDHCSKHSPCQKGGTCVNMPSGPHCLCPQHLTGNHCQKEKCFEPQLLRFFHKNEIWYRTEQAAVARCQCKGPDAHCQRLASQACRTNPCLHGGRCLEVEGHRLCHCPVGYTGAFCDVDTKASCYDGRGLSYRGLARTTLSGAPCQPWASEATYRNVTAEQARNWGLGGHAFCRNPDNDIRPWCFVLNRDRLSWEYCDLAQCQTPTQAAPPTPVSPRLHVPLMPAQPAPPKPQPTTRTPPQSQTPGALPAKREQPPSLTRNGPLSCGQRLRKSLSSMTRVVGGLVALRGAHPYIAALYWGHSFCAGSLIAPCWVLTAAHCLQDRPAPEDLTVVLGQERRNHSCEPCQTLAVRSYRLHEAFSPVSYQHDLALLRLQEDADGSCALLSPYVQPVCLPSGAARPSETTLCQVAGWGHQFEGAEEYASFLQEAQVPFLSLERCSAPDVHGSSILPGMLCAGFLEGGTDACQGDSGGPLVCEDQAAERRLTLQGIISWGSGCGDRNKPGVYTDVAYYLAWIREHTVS
The class given is functional.

Cytochrome P450 2C19, sequence (P33261 whole entry): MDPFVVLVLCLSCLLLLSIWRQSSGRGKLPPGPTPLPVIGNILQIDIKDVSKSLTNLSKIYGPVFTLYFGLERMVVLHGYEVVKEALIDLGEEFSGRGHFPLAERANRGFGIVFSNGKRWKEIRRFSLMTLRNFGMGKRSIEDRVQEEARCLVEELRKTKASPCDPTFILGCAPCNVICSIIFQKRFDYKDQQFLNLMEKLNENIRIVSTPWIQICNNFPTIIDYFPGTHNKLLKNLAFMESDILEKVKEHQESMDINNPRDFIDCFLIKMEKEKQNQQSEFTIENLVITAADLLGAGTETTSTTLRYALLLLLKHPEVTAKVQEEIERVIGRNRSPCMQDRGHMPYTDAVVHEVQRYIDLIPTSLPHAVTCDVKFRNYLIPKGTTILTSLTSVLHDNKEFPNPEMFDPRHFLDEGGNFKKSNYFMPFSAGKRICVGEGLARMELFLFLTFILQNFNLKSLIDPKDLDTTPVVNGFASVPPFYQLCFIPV

With `Cc1ccc(CNc2nc3ccccc3s2)s1`, the values for the EC50 in [1] and in [2] were 14.4 µM (active) and > 50 µM (not active), respectively.
For the compound `CC(C)c1ccc(-c2noc(C3CCCN(C(=O)c4ccc(F)cc4F)C3)n2)cc1` (stereo unspecified), the IC50 in assay [3] was 9.51 µM (not active); in [4], > 50 µM (not active).
`CC(C)c1ccc2oc(-c3ccc(N)cc3)nc2c1`: the EC50 in [1] is 12.3 µM (active); in assay [2], > 50 µM (not active).
In the case of `O=C(NCC(c1cccnc1)N1CCN(c2ccc(F)cc2)CC1)OCc1ccccc1` (stereo unspecified), the EC50 in assay [5] is > 60 µM (not active); in [6], 0.089 µM (active); in assay [7], < 0.1 µM (active).
Consider `CC(=O)n1nc(-c2ccccc2)nc1NCc1ccc(N(C)C)cc1`, for which, in assay [4], the IC50 is 3.39 µM (active).
For the compound `OC1CCN(Cc2ccc(OCc3ccccc3)cc2)CC1`, the 50% effective concentration (EC50) was > 60 µM (not active) in assay [5], 0.207 µM (active) in assay [6] and < 0.1 µM (active) in assay [7].
As to `CCOc1ccc(OCc2ccc(C(=O)O)o2)cc1`, the values for the EC50 in assay [1] and in [2] were 0.36 µM (active) and > 50 µM (not active), respectively.
With `CN(C)CCCN(C(=O)c1ccc(S(=O)(=O)N(C)C)cc1)c1nc2ccc(F)cc2s1`, the EC50 is > 60 µM (not active) in [5]; 5.96 µM (active) in [8]; 0.012 µM (active) in [6]; 9.44 µM (active) in assay [9]; < 0.1 µM (active) in assay [7].
With `Cc1ccc(NC(=O)CN(C)C(=O)CCC(=O)c2cccs2)cc1`, in assay [4], the IC50 is > 50 µM (not active).
As to `Cn1cc2ccc(N)cc2n1`, the concentration for half-maximal inhibition (IC50) in assay [10] is listed as > 50 µM (not active). In addition, the AC50 in assay [11] was 3.81 µM (active).
Turning to `CSc1nc(-c2ccco2)nn1C(=O)CCc1ccccc1`, the IC50 in assay [4] was 0.00551 µM (active).
For `O=C(Nc1ccccc1)C12CC3CC(C1)CC(n1cnc([N+](=O)[O-])n1)(C3)C2`, the EC50 in [5] was > 60 µM (not active); in [6] it was 0.06 µM (active); in [7], < 0.1 µM (active).
Turning to `O=C(CN1C(=O)CSc2ccccc21)N1CCc2ccccc21`, the IC50 in assay [4] is listed as > 50 µM (not active).
Same read-out and setting: in the case of `COc1cccc(C(=O)NNC(=O)Cc2ccc([N+](=O)[O-])cc2)c1` it was > 50 µM (not active).
With `O=C(O)c1cccc(C(=O)Nc2cccc(NC(=O)C3CCCO3)c2)c1` (stereo unspecified), the half-inhibitory concentration (IC50) in [12] is listed as > 100 µM (not active). Moreover, the EC50 is 56.3 µM (active) in assay [1] and > 50 µM (not active) in [2].
On to `CC(=O)n1nc(-c2ccccc2)nc1NCc1cccs1`, for which, in assay [4], the IC50 was 0.0965 µM (active).
As to `O=C(c1ccc([N+](=O)[O-])cc1)n1nc(-c2ccccc2)nc1NCc1ccccc1`, the AC50 in [13] was 1.58 µM (inconclusive); in [14], 0.631 µM (inconclusive). For the same compound, the IC50 in [4] is 0.0293 µM (active).
For the compound `Cc1ccc2c(c1)C1CN(C)CCC1N2C(=O)c1ccc(Cl)c(S(=O)(=O)N2CCOCC2)c1` (stereo unspecified), the values for the EC50 in [5], in [6] and in [7] were > 60 µM (not active), 0.199 µM (active) and < 0.1 µM (active), respectively.
`NS(=O)(=O)c1ccc(CCNC(=O)Cc2ccccc2[N+](=O)[O-])cc1`: the IC50 in assay [4] is > 50 µM (not active); in assay [15], > 50 µM (inactive).
